Measured values published in patent US11981658B2, “Substituted aminopyridine compounds as EGFR inhibitors” (YUHAN CORPORATION, priority 2021, dated 2024).
Where two headings read alike, the source gives them in different places.

Key:
EGFR Del19/T790M/C797S = EGFR Del19/T790M/C797S (Homo sapiens, UniProt P00533, C797S/DEL746-750/T790M); assay: Biochemical EGFR kinase inhibition assay (Lance Ultra TR-FRET), triple mutant del19/T790M/C797S
Summary of the method: (§1)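 In this biochemical assay, phosphorylation after a one-hour room-temperature reaction was detected with europium-labelled anti-phosphopeptide antibody at 2 nM final concentration.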

EGFR L858R/T790M/C797S = EGFR L858R/T790M/C797S (Homo sapiens, UniProt P00533, C797S/L858R/T790M); assay: Biochemical EGFR kinase inhibition assay (Lance Ultra TR-FRET), triple mutant L858R/T790M/C797S
Chain of EGFR L858R/T790M/C797S (P00533 25-1210 T790M/C797S/L858R): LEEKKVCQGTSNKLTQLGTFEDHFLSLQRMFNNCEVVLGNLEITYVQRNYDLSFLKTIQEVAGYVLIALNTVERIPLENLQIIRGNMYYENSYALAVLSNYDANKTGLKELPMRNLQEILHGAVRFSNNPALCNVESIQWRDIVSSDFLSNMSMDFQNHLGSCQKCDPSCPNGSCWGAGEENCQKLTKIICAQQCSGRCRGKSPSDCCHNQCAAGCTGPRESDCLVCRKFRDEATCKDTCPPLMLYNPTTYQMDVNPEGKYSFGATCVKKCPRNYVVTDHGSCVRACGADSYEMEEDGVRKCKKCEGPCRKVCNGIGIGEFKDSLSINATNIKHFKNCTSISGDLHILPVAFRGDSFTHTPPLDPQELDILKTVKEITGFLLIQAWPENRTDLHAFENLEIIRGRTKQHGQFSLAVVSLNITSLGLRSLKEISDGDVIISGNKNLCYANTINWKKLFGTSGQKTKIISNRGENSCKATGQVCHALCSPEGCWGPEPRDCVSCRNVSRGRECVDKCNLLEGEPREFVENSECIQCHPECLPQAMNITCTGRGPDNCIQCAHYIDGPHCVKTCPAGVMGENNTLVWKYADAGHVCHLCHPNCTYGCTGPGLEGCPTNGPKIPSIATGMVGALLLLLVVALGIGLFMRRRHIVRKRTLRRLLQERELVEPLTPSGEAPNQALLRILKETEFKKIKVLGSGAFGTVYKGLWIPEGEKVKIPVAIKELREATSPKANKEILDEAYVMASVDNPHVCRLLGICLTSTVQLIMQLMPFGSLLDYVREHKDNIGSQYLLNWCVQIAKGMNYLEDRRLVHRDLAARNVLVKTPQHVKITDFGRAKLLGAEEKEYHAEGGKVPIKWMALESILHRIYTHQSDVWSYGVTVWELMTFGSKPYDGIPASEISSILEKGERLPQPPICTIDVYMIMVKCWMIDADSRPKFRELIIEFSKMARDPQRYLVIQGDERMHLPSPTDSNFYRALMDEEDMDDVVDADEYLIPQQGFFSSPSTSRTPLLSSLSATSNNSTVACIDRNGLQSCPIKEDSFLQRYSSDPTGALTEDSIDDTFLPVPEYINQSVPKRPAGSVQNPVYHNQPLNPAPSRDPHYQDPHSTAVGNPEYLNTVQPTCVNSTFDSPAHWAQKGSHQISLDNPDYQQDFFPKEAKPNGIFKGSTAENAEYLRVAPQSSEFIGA
Summary of the method: as §1

EGFR Del19/C797S = EGFR Del19/C797S (Homo sapiens, UniProt P00533, C797S/DEL746-750); assay: Biochemical EGFR kinase inhibition assay (Lance Ultra TR-FRET), double mutant del19/C797S
Chain of EGFR Del19/C797S (P00533 with tags, fused parts or gaps DEL746-750/C797S): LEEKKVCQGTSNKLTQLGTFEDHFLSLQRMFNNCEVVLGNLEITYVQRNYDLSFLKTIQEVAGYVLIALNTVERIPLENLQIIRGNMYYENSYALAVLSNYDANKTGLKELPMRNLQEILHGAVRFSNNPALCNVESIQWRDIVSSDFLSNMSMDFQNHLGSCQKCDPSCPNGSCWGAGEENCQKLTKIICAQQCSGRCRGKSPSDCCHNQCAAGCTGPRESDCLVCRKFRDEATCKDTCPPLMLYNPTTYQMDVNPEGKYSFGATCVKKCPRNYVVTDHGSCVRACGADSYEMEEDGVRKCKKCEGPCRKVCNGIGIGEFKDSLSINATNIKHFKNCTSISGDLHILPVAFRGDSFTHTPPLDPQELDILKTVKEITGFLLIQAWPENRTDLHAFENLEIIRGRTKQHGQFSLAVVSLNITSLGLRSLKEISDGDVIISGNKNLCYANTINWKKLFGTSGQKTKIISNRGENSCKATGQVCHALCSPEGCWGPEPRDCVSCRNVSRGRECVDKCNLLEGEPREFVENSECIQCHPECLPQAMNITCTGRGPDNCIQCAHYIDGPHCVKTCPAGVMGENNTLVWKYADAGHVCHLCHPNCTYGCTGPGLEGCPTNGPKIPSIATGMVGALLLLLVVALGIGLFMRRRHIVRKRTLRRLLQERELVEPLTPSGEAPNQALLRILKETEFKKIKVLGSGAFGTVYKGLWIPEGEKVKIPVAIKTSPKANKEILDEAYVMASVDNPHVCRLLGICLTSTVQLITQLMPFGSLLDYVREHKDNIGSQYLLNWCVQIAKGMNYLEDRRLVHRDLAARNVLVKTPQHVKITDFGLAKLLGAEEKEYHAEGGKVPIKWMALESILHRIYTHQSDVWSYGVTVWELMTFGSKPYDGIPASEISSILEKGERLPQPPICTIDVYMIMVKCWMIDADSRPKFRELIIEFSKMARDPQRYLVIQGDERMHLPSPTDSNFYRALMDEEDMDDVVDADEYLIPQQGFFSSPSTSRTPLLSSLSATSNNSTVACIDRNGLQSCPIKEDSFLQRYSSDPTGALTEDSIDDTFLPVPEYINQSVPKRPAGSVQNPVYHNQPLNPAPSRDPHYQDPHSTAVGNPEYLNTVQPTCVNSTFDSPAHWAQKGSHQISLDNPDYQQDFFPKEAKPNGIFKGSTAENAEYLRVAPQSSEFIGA
Summary of the method: as §1

EGFR L858R/C797S = EGFR L858R/C797S (Homo sapiens, UniProt P00533, C797S/L858R); assay: Biochemical EGFR kinase inhibition assay (Lance Ultra TR-FRET), double mutant L858R/C797S
Summary of the method: as §1

EGFR wildtype (WT) = EGFR wildtype (WT) (Homo sapiens, UniProt P00533); assay: Biochemical EGFR kinase inhibition assay (Lance Ultra TR-FRET), wildtype
Chain of EGFR wildtype (WT) (P00533 25-1210): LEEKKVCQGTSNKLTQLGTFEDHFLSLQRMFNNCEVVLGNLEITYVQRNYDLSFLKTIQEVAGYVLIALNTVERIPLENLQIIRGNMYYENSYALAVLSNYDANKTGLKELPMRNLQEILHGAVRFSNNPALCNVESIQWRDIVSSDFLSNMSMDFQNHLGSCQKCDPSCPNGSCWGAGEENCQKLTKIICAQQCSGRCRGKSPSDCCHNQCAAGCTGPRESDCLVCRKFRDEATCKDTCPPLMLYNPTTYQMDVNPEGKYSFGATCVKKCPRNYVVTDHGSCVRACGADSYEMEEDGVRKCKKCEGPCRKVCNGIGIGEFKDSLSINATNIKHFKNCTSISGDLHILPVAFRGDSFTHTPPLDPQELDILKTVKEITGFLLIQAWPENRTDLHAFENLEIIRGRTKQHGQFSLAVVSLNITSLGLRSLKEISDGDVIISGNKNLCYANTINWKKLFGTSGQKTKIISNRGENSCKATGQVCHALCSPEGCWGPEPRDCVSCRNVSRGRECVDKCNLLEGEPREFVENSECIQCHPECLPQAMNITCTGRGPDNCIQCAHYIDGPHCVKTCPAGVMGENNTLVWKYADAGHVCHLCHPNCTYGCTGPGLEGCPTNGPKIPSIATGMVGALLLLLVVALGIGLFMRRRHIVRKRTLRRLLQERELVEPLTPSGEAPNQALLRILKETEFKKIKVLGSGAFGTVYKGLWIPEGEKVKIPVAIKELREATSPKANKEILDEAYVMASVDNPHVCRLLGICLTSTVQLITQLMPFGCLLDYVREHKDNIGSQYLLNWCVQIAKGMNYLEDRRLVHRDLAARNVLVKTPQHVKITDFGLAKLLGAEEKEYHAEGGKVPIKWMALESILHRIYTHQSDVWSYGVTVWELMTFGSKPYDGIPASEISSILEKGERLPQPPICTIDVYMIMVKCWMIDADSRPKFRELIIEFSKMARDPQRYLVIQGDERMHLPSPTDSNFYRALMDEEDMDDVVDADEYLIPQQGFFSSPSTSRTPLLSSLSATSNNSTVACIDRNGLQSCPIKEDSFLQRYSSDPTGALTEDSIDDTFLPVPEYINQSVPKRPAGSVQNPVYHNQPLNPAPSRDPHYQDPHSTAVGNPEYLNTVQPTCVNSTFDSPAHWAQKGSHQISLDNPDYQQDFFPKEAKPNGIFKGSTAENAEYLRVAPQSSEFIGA
Summary of the method: as §1

[1] = IC50 Del19/T790M/C797S (nM), 100 μM ATP
[2] = Km ATP, read-out: IC50 Del19/T790M/C797S (nM), Km ATP
[3] = IC50 L858R/T790M/C797S (nM), 100 μM ATP
[4] = Km ATP, read-out: IC50 L858R/T790M/C797S (nM), Km ATP
[5] = IC50 Del19/C797S (nM), 100 μM ATP
[6] = Km ATP, read-out: IC50 Del19/C797S (nM), Km ATP
[7] = IC50 L858R/C797S (nM), 100 μM ATP
[8] = Km ATP, read-out: IC50 L858R/C797S (nM), Km ATP
[9] = Km ATP, read-out: IC50 WT (nM), Km ATP
[10] = ATP at Km, read-out: IC50 Del19/T790M/C797S (nM), Km ATP
[11] = ATP at Km, read-out: IC50 L858R/T790M/C797S (nM), Km ATP
[12] = ATP at Km, read-out: IC50 Del19/C797S (nM), Km ATP
[13] = ATP at Km, read-out: IC50 L858R/C797S (nM), Km ATP
[14] = ATP at Km, read-out: IC50 WT (nM), Km ATP
[15] = Km ATP, read-out: IC50 Del19/T790M/C797S (nM) Km ATP
[16] = Km ATP, read-out: IC50 L858R/T790M/C797S (nM) Km ATP
[17] = Km ATP, read-out: IC50 Del19/C797S (nM) Km ATP
[18] = Km ATP, read-out: IC50 L858R/C797S (nM) Km ATP
[19] = Km ATP, read-out: IC50 WT (nM) Km ATP

Chain of EGFR Del19/T790M/C797S (P00533 with tags, fused parts or gaps DEL746-750/T790M/C797S): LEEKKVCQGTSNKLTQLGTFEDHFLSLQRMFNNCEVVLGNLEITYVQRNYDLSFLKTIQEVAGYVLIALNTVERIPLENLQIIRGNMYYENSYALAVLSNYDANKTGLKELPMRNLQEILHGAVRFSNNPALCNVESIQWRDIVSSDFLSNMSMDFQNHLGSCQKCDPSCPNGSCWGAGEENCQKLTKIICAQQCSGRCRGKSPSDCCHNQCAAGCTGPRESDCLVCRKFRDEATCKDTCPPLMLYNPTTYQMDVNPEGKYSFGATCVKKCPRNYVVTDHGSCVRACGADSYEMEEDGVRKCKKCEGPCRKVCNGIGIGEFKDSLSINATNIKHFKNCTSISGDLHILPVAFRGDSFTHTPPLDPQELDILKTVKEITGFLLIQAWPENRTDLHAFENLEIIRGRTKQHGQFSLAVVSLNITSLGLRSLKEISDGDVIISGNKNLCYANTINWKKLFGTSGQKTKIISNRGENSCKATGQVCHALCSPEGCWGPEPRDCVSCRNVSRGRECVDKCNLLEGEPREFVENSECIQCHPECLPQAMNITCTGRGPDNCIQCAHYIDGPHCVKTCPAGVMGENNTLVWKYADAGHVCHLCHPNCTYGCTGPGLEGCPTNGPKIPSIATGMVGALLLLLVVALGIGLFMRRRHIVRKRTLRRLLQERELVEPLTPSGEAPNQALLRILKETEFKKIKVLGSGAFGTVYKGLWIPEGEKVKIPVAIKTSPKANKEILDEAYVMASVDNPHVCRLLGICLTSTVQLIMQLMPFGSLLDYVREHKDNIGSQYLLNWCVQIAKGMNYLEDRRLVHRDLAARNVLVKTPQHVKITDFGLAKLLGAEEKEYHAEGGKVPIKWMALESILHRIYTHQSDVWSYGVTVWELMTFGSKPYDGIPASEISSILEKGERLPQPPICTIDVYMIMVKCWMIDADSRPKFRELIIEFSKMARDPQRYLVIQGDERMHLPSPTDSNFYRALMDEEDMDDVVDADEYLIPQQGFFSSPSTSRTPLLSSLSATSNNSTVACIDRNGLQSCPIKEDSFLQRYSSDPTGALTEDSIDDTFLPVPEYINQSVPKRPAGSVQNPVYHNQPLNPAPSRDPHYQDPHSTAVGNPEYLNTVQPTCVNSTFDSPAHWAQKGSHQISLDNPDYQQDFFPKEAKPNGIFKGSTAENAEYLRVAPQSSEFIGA

Row | Compound | IC50 (EGFR Del19/T790M/C797S; [1]) | IC50 (EGFR Del19/T790M/C797S; [2]) | IC50 (EGFR L858R/T790M/C797S; [3]) | IC50 (EGFR L858R/T790M/C797S; [4]) | IC50 (EGFR Del19/C797S; [5]) | IC50 (EGFR Del19/C797S; [6]) | IC50 (EGFR L858R/C797S; [7]) | IC50 (EGFR L858R/C797S; [8]) | IC50 (EGFR wildtype (WT); IC50 WT (nM), 100 μM ATP) | IC50 (EGFR wildtype (WT); [9]) | IC50 (EGFR Del19/T790M/C797S; [10]) | IC50 (EGFR L858R/T790M/C797S; [11]) | IC50 (EGFR Del19/C797S; [12]) | IC50 (EGFR L858R/C797S; [13]) | IC50 (EGFR wildtype (WT); [14]) | other results
1 | CC1(CO)CCN(c2cc(Nc3ccnc(-c4cnn(S(=O)(=O)C5CC5)c4)n3)ncc2C#CC2COC2)CC1 [Example 352, (1-(2-((2-(1-(Cyclopropylsulfonyl)-1H-pyrazol-4-yl)pyrimidin-4-yl)amino)-5-(oxetan-3-ylethynyl)pyridin-4-yl)-4-methylpiperidin-4-yl)methanol] | 0.3 nM | 0.3 nM | 0.2 nM | 0.1 nM | 0.5 nM | 0.6 nM | 9.5 nM | 1.6 nM | 820 nM | 5.5 nM | – | – | – | – | – | –
2 | CC1OCCC1C#Cc1cnc(Nc2ccnc(-c3cnn(S(=O)(=O)C4CC4)c3)n2)cc1NC1CCC(CO)CC1 (centres unmarked) [Example 430, ((1s,4s)-4-((2-((2-(1-(Cyclopropylsulfonyl)-1H-pyrazol-4-yl)pyrimidin-4-yl)amino)-5-((2-methyltetrahydrofuran-3-yl)ethynyl)pyridin-4-yl)amino)cyclohexyl)methanol] | 1 nM | 0.6 nM | 0.9 nM | 0.3 nM | 3.8 nM | 1.3 nM | 107 nM | 4.3 nM | 7480 nM | 6.9 nM | – | – | – | – | – | –
3 | CC1(C#Cc2cnc(Nc3ccnc(-c4cnn(S(=O)(=O)C5CC5)c4)n3)cc2N[C@H]2CC[C@@H](O)CC2)CC1 [Example 359, (1s,4s)-4-((2-((2-(1-(Cyclopropylsulfonyl)-1H-pyrazol.-4-yl)pyrimidin-4-yl)amino)-5-((1-methylcyclopropyl)ethynyl)pyridin-4-yl)amino)cyclohexan-1-ol] | 1.6 nM | 0.9 nM | 1.5 nM | 0.4 nM | 2.6 nM | 2.2 nM | 55.1 nM | 3.6 nM | > 10000 nM | 26.7 nM | – | – | – | – | – | –
4 | CC(C)(O)[C@H]1CC[C@@H](Nc2cc(Nc3ccnc(-c4cnn(S(=O)(=O)C5CC5)c4)n3)ncc2C#Cc2cnn(CC(F)(F)F)c2)CC1 [Example 346, 2-((1s,4s)-4-((2-((2-(1-(Cyclopropylsulfonyl)-1H-pyrazol-4-yl)pyrimidin-4-yl)amino)-5-((1-(2,2,2-trifluoroethyl)-1H-pyrazol-4-yl)ethynyl)pyridin-4-yl)amino)cyclohexyl)propan-2-ol] | 17.4 nM | – | 5.8 nM | – | 45.3 nM | – | 249 nM | – | > 10000 nM | – | – | – | – | – | – | –
5 | CC1(CO)CCN(c2cc(Nc3ccnc(-c4cnn(S(=O)(=O)C5CC5)c4)n3)ncc2C#CC2CCOCC2)CC1 [Example 179, (1-(2-((2-(1-(Cyclopropylsulfonyl)-1H-pyrazol-4-yl)pyrimidin-4-yl)amino)-5-((tetrahydro-2H-pyran-4-yl)ethynyl)pyridin-4-yl)-4-methylpiperidin-4-yl)methanol] | 0.5 nM | – | 0.3 nM | – | 1.9 nM | – | 13.4 nM | – | 3880 nM | – | 0.4 nM | 0.2 nM | 0.8 nM | 1.5 nM | 6.2 nM | –
6 | CC(=O)N1CCC(n2cc(C#Cc3cnc(Nc4ccnc(-c5cnn(S(=O)(=O)C6CC6)c5)n4)cc3N3CCC(NCCN(C)C)CC3)cn2)CC1 [Example 139, 1-(4-(4-((6-((2-(1-(Cyclopropylsulfonyl)-1H-pyrazol-4-yl)pyrimidin-4-yl)amino)-4-(4-((2-(dimethylamino)ethyl)amino)piperidin-1-yl)pyridin-3-yl)ethynyl)-1H-pyrazol-1-yl)piperidin-1-yl)ethan-1-one] | 0.4 nM | – | 0.4 nM | – | 1.4 nM | – | 8.2 nM | – | 1580 nM | – | – | – | – | – | – | IC50 (EGFR Del19/T790M/C797S; [15]): 0.4 nM; IC50 (EGFR L858R/T790M/C797S; [16]): 0.1 nM; IC50 (EGFR Del19/C797S; [17]): 0.9 nM; IC50 (EGFR L858R/C797S; [18]): 0.9 nM; IC50 (EGFR wildtype (WT); [19]): 5.4 nM
7 | CN1CCC(C#Cc2cnc(Nc3ccnc(-c4cnn(S(=O)(=O)C5CC5)c4)n3)cc2N2CCC3(CCO3)CC2)C1 (centres unmarked) [Example 373, 2-(1-(Cyclopropylsulfonyl)-1H-pyrazol-4-yl)-N-(5-((1-methylpyrrolidin-3-yl)ethynyl)-4-(1-oxa-7-azaspiro[3.5]nonan-7-yl)pyridin-2-yl)pyrimidin-4-amine] | 0.2 nM | 0.2 nM | 0.4 nM | 0.1 nM | 1.8 nM | 1.6 nM | 41.6 nM | 2.5 nM | 9540 nM | 10.8 nM | – | – | – | – | – | –
8 | C[C@]1(O)CC[C@@H](Nc2cc(Nc3ccnc(-c4cnn(S(=O)(=O)C5CC5)c4)n3)ncc2C#Cc2ccc(CN3CCOCC3)cc2)CC1 [Example 158, (1s,4s)-4-((2-((2-(1-(Cyclopropylsulfonyl)-1H-pyrazol-4-yl)pyrimidin-4-yl)amino)-5-((4-(morpholinomethyl)phenyl)ethynyl)pyridin-4-yl)amino)-1-methylcyclohexan-1-ol] | – | – | – | – | – | – | – | – | – | – | 6.2 nM | 2.5 nM | 18.3 nM | 15.3 nM | 523 nM | IC50 (EGFR Del19/T790M/C797S; read-out: IC50 Del19/T790M/C797S (nM), 100 μM ATP): 6.8 nM; IC50 (EGFR L858R/T790M/C797S; read-out: IC50 L858R/T790M/C797S (nM), 100 μM ATP): 8.4 nM; IC50 (EGFR Del19/C797S; read-out: IC50 Del19/C797S (nM), 100 μM ATP): 131 nM; IC50 (EGFR L858R/C797S; read-out: IC50 L858R/C797S (nM), 100 μM ATP): 809 nM; IC50 (EGFR wildtype (WT); read-out: IC50 WT (nM), 100 μM ATP): > 10000 nM
9 | Cn1cc(C#Cc2cnc(Nc3ccnc(-c4cnn(S(=O)(=O)C5CC5)c4)n3)cc2N2CCC(NCC(F)F)CC2)cn1 [Example 126, 2-(1-(Cyclopropylsulfonyl)-1H-pyrazol-4-yl)-N-(4-(4-((2,2-difluoroethyl)amino)piperidin-1-yl)-5-((1-methyl-1H-pyrazol-4-yl)ethynyl)pyridin-2-yl)pyrimidin-4-amine] | 1.7 nM | – | 0.9 nM | – | 1.6 nM | – | 11.5 nM | – | > 10000 nM | – | – | – | – | – | – | IC50 (EGFR Del19/T790M/C797S; [15]): 0.6 nM; IC50 (EGFR L858R/T790M/C797S; [16]): 0.3 nM; IC50 (EGFR Del19/C797S; [17]): 1.4 nM; IC50 (EGFR L858R/C797S; [18]): 1.8 nM; IC50 (EGFR wildtype (WT); [19]): 35 nM
10 | CN(C)CC1(F)CCN(c2cc(Nc3ccnc(-c4cnn(S(=O)(=O)C5CC5)c4)n3)ncc2C#Cc2cnn(C3CC3)c2)CC1 [Example 300, N-(5-((1-Cyclopropyl-1H-pyrazol-4-yl)ethynyl)-4-(4-((dimethylamino)methyl)-4-fluoropiperidin-1-yl)pyridin-2-yl)-2-(1-(cyclopropylsulfonyl)-1H-pyrazol-4-yl)pyrimidin-4-amine] | 0.9 nM | – | 1.5 nM | – | 10.3 nM | – | 288 nM | – | > 10000 nM | – | 0.9 nM | 1.1 nM | 3.3 nM | 13.5 nM | 26.8 nM | –
